{"source": "ChEMBL document CHEMBL4808221", "about": "“Design and Synthesis of Novel c-di-GMP G-Quadruplex Inducers as Bacterial Biofilm Inhibitors” (J Med Chem, 2021)", "key": {"[1]": {"test_system": "c-di-GMP G-quadruplex", "experiment": "Induction of c-di-GMP G-quadruplex formation in Pseudomonas aeruginosa PAO1 harboring wspF gene mutation assessed as induction of fleN expression at 1.25 uM by RT-PCR method"}, "[2]": {"test_system": "c-di-GMP G-quadruplex", "experiment": "Induction of c-di-GMP G-quadruplex formation in Pseudomonas aeruginosa PAO1 harboring wspF gene mutation assessed as induction of flhF expression at 1.25 uM incubated for 15 hrs by transcriptome analysis"}, "[3]": {"test_system": "Pseudomonas aeruginosa", "experiment": "Effect on swarming capacity of Pseudomonas aeruginosa PAO1 harboring wspF gene mutation assessed as increase in motility at 2.5 uM incubated for 14 hrs relative to control", "format": "functional"}, "[4]": {"test_system": "Pseudomonas aeruginosa", "experiment": "Effect on swarming capacity of Pseudomonas aeruginosa PAO1 harboring wspF gene mutation assessed as increase in motility at 5 uM incubated for 14 hrs relative to control", "format": "functional"}, "[5]": {"experiment": "Binding affinity to guanosine monophosphate (unknown origin) at 5 uM by fluorescence method"}, "[6]": {"test_system": "c-di-GMP G-quadruplex", "experiment": "Induction of c-di-GMP G-quadruplex formation in Pseudomonas aeruginosa PAO1 harboring wspF gene mutation assessed as induction of fleN expression at 1.25 uM incubated for 15 hrs by transcriptome analysis"}, "[7]": {"test_system": "Pseudomonas aeruginosa", "experiment": "Effect on extracellular polysaccharide in Pseudomonas aeruginosa PAO1 harboring wspF gene mutation assessed as reduction in EPS production at 0.15625 to 0.625 uM by congo red binding assay", "format": "functional, organism-based", "details": "dose 0.15625-0.625 µM"}, "[8]": {"test_system": "DNA", "experiment": "Toxicity assessed as induction of Escherichia coli pBR322 DNA intercalation activity at 10 uM incubated for 10 mins by polyacrylamide gel electrophoresis method"}, "[9]": {"test_system": "c-di-GMP G-quadruplex", "experiment": "Induction of c-di-GMP G-quadruplex formation in Pseudomonas aeruginosa PAO1 harboring wspF gene mutation assessed as reduction in pelB expression at 1.25 uM by RT-PCR method"}, "[10]": {"test_system": "c-di-GMP G-quadruplex", "experiment": "Induction of c-di-GMP G-quadruplex formation in Pseudomonas aeruginosa PAO1 harboring wspF gene mutation assessed as reduction in pslE expression at 1.25 uM by RT-PCR method"}, "[11]": {"test_system": "Pseudomonas aeruginosa", "experiment": "Effect on swarming capacity of Pseudomonas aeruginosa PAO1 harboring wspF gene mutation assessed as increase in motility at 3.75 uM incubated for 14 hrs relative to control", "format": "functional"}, "[12]": {"test_system": "Pseudomonas aeruginosa", "experiment": "Effect on extracellular polysaccharide in Pseudomonas aeruginosa PAO1 harboring wspF gene mutation assessed as reduction in EPS production at 1.25 uM by congo red binding assay relative to control", "format": "functional", "design": "scale not given: the % may be the effect or the level left"}, "[13]": {"test_system": "c-di-GMP G-quadruplex", "experiment": "Induction of c-di-GMP G-quadruplex formation in Pseudomonas aeruginosa PAO1 harboring wspF gene mutation assessed as inhibition of biofilm formation incubated for 20 hrs by crystal violet staining assay relative to control", "format": "nucleic-acid assay"}, "[14]": {"test_system": "Bacteria", "experiment": "Effect on RocR (unknown origin) assessed as induction of c-di-GMP degradation at 1.25 to 5 uM measured by HPLC method", "details": "dose 1.25-5 µM"}, "[15]": {"experiment": "Binding affinity to d-NTP (unknown origin) at 5 uM by fluorescence method"}, "[16]": {"test_system": "Pseudomonas aeruginosa", "experiment": "Antibacterial activity against Pseudomonas aeruginosa PAO1 assessed as reduction in biofilm formation at 0.15625 to 1.25 uM by crystal violet staining method", "format": "functional, organism-based", "details": "dose 0.15625-1.25 µM"}, "[17]": {"experiment": "Binding affinity to c-di-GMP (unknown origin) at 5 uM using varying level of c-di-GMP by fluorescence method"}, "[18]": {"experiment": "Cytotoxicity against human AC16 cells assessed as cell survival at 1.25 uM incubated for 24 hrs by MTT assay relative to control", "format": "cell-based, AC16 [Human hybrid]", "details": "read-out: Survival"}, "[19]": {"test_system": "c-di-GMP G-quadruplex", "experiment": "Induction of c-di-GMP G-quadruplex formation in Pseudomonas aeruginosa PAO1 harboring wspF gene mutation assessed as induction of fliD expression at 1.25 uM incubated for 15 hrs by transcriptome analysis"}, "[20]": {"test_system": "c-di-GMP G-quadruplex", "experiment": "Induction of c-di-GMP G-quadruplex formation in Pseudomonas aeruginosa PAO1 harboring wspF gene mutation assessed as reduction in cdrA expression at 1.25 uM by RT-PCR method"}, "[21]": {"test_system": "Pseudomonas aeruginosa", "experiment": "Antibacterial activity against Pseudomonas aeruginosa PAO1 harboring wspF gene mutation assessed as reduction in bacterial growth at 512 uM by crystal violet staining assay relative to control", "format": "functional, organism-based"}, "[22]": {"test_system": "c-di-GMP G-quadruplex", "experiment": "Induction of c-di-GMP G-quadruplex formation in Pseudomonas aeruginosa PAO1 harboring wspF gene mutation assessed as induction of flgA expression at 1.25 uM incubated for 15 hrs by transcriptome analysis"}, "[23]": {"test_system": "c-di-GMP G-quadruplex", "experiment": "Induction of c-di-GMP G-quadruplex formation in Pseudomonas aeruginosa PAO1 harboring wspF gene mutation assessed as induction of flhA expression at 1.25 uM incubated for 15 hrs by transcriptome analysis"}, "[24]": {"test_system": "c-di-GMP G-quadruplex", "experiment": "Induction of c-di-GMP G-quadruplex formation in Pseudomonas aeruginosa PAO1 harboring wspF gene mutation assessed as inhibition of biofilm formation at 1.25 uM incubated for 20 hrs by crystal violet staining assay relative to control", "format": "nucleic-acid assay"}, "[25]": {"test_system": "Bacteria", "experiment": "Effect on WspR (unknown origin) assessed as reduction in c-di-GMP level at 1.25 to 5 uM measured by HPLC method", "details": "dose 1.25-5 µM"}, "[26]": {"test_system": "c-di-GMP G-quadruplex", "experiment": "Induction of c-di-GMP G-quadruplex formation in Pseudomonas aeruginosa PAO1 harboring wspF gene mutation assessed as suppression of cdrA expression at 1.25 uM incubated for 15 hrs by transcriptome analysis"}, "[27]": {"test_system": "c-di-GMP G-quadruplex", "experiment": "Downregulation of c-di-GMP level in Pseudomonas aeruginosa PAO1 harboring wspF gene mutation assessed as induction of tpbA expression at 1.25 uM incubated for 15 hrs by transcriptome analysis"}, "[28]": {"test_system": "c-di-GMP G-quadruplex", "experiment": "Induction of c-di-GMP G-quadruplex formation in Pseudomonas aeruginosa PAO1 harboring wspF gene mutation assessed as inhibition of biofilm formation incubated for 24 hrs by confocal microscopic method", "format": "nucleic-acid assay"}, "[29]": {"test_system": "c-di-GMP G-quadruplex", "experiment": "Downregulation of c-di-GMP level in Pseudomonas aeruginosa PAO1 harboring wspF gene mutation assessed as reduction in Alg44 expression at 1.25 uM incubated for 15 hrs by transcriptome analysis"}, "[30]": {"test_system": "c-di-GMP G-quadruplex", "experiment": "Induction of c-di-GMP G-quadruplex formation in Pseudomonas aeruginosa […] assessed as inhibition of biofilm formation at 0.15625 to 1.25 uM by confocal microscopic method", "format": "nucleic-acid assay", "details": "PAO1, dose 0.15625-1.25 µM"}, "[31]": {"test_system": "Quadruplex DNA", "experiment": "Induction of c-di-GMP G-quadruplex formation (unknown origin) measured at 300 nanometer by CD spectroscopy", "format": "nucleic-acid assay"}, "[32]": {"experiment": "Binding affinity to r-NTP (unknown origin) at 5 uM by fluorescence method"}, "[33]": {"experiment": "Cytotoxicity against human AC16 cells assessed as cell survival at 0.15625 to 10 uM incubated for 24 hrs by MTT assay relative to control", "format": "cell-based, AC16 [Human hybrid]", "details": "dose 0.15625-10 µM, read-out: Survival"}, "[34]": {"test_system": "c-di-GMP G-quadruplex", "experiment": "Induction of c-di-GMP G-quadruplex formation in Pseudomonas aeruginosa PAO1 harboring wspF gene mutation assessed as induction of flhA expression at 1.25 uM by RT-PCR method"}, "[35]": {"test_system": "c-di-GMP G-quadruplex", "experiment": "Induction of c-di-GMP G-quadruplex formation in Pseudomonas aeruginosa PAO1 harboring wspF gene mutation and LacZ reporter gene assessed as reduction in PelA expression by measuring decrease in lacZ activity at 0.3125 to 1.25 uM incubated for 4 hrs by absorbance method", "details": "dose 0.3125-1.25 µM"}, "[36]": {"test_system": "Pseudomonas aeruginosa", "experiment": "Antibacterial activity against Pseudomonas aeruginosa PAO1 harboring wspF gene mutation assessed as reduction in bacterial growth at 0.15625 to 2.5 uM by confocal microscopic method", "format": "functional, organism-based", "details": "dose 0.15625-2.5 µM"}}, "note": "Activity calls are given as the source filed them. The rule behind the calls is not given here.", "data": [{"smiles": "COc1cc(/C=C/c2sc3ccccc3[n+]2C)ccc1O.[I-]", "values": [{"measurement": "Activity", "setting": "[1]", "value": "Active"}, {"measurement": "Activity", "setting": "[2]", "value": "Active"}, {"measurement": "Activity", "setting": "[3]", "value": 15, "unit": "%"}, {"measurement": "Activity", "setting": "[4]", "value": 77, "unit": "%"}, {"measurement": "Activity", "setting": "[5]", "value": "Active"}, {"measurement": "Activity", "setting": "[6]", "value": "Active"}, {"measurement": "Activity", "setting": "[7]", "value": "Active"}, {"measurement": "Activity", "setting": "[8]", "value": "Non-Toxic"}, {"measurement": "Activity", "setting": "[9]", "value": "Active"}, {"measurement": "Activity", "setting": "[10]", "value": "Active"}, {"measurement": "Activity", "setting": "[11]", "value": 34, "unit": "%"}, {"measurement": "Activity", "setting": "[12]", "value": 30, "unit": "%"}, {"measurement": "IC50", "setting": "[13]", "value": 880, "unit": "nM"}, {"measurement": "Activity", "setting": "[14]", "value": "inactive"}, {"measurement": "Activity", "setting": "[15]", "value": "Active"}, {"measurement": "Activity", "setting": "[16]", "value": "Active"}, {"measurement": "Activity", "setting": "[17]", "value": "Active"}, {"measurement": "viability at 24 h, 1.25 µM", "setting": "[18]", "value": 96, "unit": "%"}, {"measurement": "Activity", "setting": "[19]", "value": "Active"}, {"measurement": "Activity", "setting": "[20]", "value": "Active"}, {"measurement": "Activity", "setting": "[21]", "value": "inactive"}, {"measurement": "Activity", "setting": "[22]", "value": "Active"}, {"measurement": "Activity", "setting": "[23]", "value": "Active"}, {"measurement": "inhibition", "setting": "[24]", "value": 62.2, "unit": "%"}, {"measurement": "Activity", "setting": "[25]", "value": "inactive"}, {"measurement": "Activity", "setting": "[26]", "value": "Active"}, {"measurement": "Activity", "setting": "[27]", "value": "Active"}, {"measurement": "Activity", "setting": "[28]", "value": "Dose-Dependent Effect"}, {"measurement": "Activity", "setting": "[29]", "value": "Active"}, {"measurement": "Activity", "setting": "[30]", "value": "Active"}, {"measurement": "Activity", "setting": "[31]", "value": "Active"}, {"measurement": "Activity", "setting": "[32]", "value": "Active"}, {"measurement": "viability at 24 h, up to 10 µM", "setting": "[33]", "value": "> 90", "unit": "%"}, {"measurement": "Activity", "setting": "[34]", "value": "Active"}, {"measurement": "Activity", "setting": "[35]", "value": "Active"}, {"measurement": "Activity", "setting": "[36]", "value": "inactive"}]}]}
